Reference: patent publication US12257247B2 (Monte Rosa Therapeutics AG, priority 2023, dated 2025)
Read-outs that look alike come from different tables or passages of the source.

Target: T1, VAV1 (Homo sapiens, UniProt P15498+Q96SW2)
T1 construct: A heterozygous VAV1 C-terminal HiBiT knock-in pool was generated at Monte Rosa Therapeutics from a clonal Jurkat cell; endogenous in cells; host or cells: Jurkat clone stably expressing LgBiT, homozygous GSPT1-G575N; heterozygous VAV1-HiBiT knock-in pool
Test: VAV1 degradation activity, VAV1-HiBiT knock-in Jurkat luminescence assay (Example A, Table 1)
Format: cell-based
Settings: VAV1-HiBiT knock-in Jurkat cells, luminescence read at 6 and 24 hours; for Dmax: Jurkat
Procedure, shortened: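 Jurkat cells carrying VAV1-HiBiT knock-in, plated in RPMI/10% FBS with Endurazine live-cell substrate and pre-incubated ~16 h at 37° C. Compound dosed from 10 μM stock; luminescence read 6 and 24 h later. Response normalised to plate negative/positive controls, EC50 from 3-parameter logistic fit (hillslope 1).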

[1] = read-out: VAV1 DC50 (nM), class

| SMILES | Dmax (read-out: VAV1 Dmax %) [%] | Dmax (read-out: VAV1 Dmax %, class) [%] | DC50 (read-out: VAV1 DC50) [nM] | DC50 [1] [nM] |
| --- | --- | --- | --- | --- |
| O=C1CCC(c2cccc(-c3ccc(N4C(=O)OCCC45CC5)nc3)c2Cl)C(=O)N1 (stereo not drawn) [Compound 351, 3-(2-chloro-3-(6-(5-oxo-6-oxa-4-azaspiro[2.5]octan-4-yl)pyridin-3-yl)phenyl)piperidine-2,6-dione] | 87 | 60 to 90 | 82.5 | ≤ 100 |
| CN1CC(=O)N(c2ccc(-c3cccc(C4CCC(=O)NC4=O)c3Cl)cc2)CC12CC2 (stereo not drawn) [Compound 352, 3-(2-chloro-4′-(4-methyl-6-oxo-4,7-diazaspiro[2.5]octan-7-yl)-[1,1′-biphenyl]-3-yl)piperidine-2,6-dione] | 82.3 | 60 to 90 | 65.3 | ≤ 100 |
| Cc1cccc(=O)n1-c1ccc(-c2cccc(C3CCC(=O)NC3=O)c2Cl)cn1 (stereo not drawn) [Compound 353, 3-(2-chloro-3-(6-methyl-2-oxo-2H-[1,2′-bipyridin]-5′-yl)phenyl)piperidine-2,6-dione] | 90.7 | > 90 | 62.1 | ≤ 100 |
| O=C1CCC(c2cccc(-c3ccc(Oc4ccccn4)cc3)c2Cl)C(=O)N1 (stereo not drawn) [Compound 354, 3-(2-chloro-4′-(pyridin-2-yloxy)-[1,1′-biphenyl]-3-yl)piperidine-2,6-dione] | 97.4 | > 90 | 13.3 | ≤ 100 |
| O=C1CCC(c2cccc(-c3ccc(N4C(=O)CCC45COC5)cc3)c2Cl)C(=O)N1 (stereo not drawn) [Compound 355, 3-(2-chloro-4′-(6-oxo-2-oxa-5-azaspiro[3.4]octan-5-yl)-[1,1′-biphenyl]-3-yl)piperidine-2,6-dione] | 91.8 | > 90 | 15.9 | ≤ 100 |
| O=C1CCC(c2cccc(-c3ccc(N4C(=O)OCC45CC5)nc3)c2Cl)C(=O)N1 (stereo not drawn) [Compound 356, 3-(2-chloro-3-(6-(5-oxo-6-oxa-4-azaspiro[2.4]heptan-4-yl)pyridin-3-yl)phenyl)piperidine-2,6-dione] | 86 | 60 to 90 | 71.4 | ≤ 100 |
| O=C1CCC(c2cccc(-c3ccc(N4C(=O)OCC45CCC5)nc3)c2Cl)C(=O)N1 (stereo not drawn) [Compound 357, 3-(2-chloro-3-(6-(6-oxo-7-oxa-5-azaspiro[3.4]octan-5-yl)pyridin-3-yl)phenyl)piperidine-2,6-dione] | 90.8 | > 90 | 35.8 | ≤ 100 |
| O=C1CCC(c2cccc(-c3ccc(N4CCC5(COC5)C4=O)cc3)c2Cl)C(=O)N1 (stereo not drawn) [Compound 358, 3-(2-chloro-4′-(5-oxo-2-oxa-6-azaspiro[3.4]octan-6-yl)-[1,1′-biphenyl]-3-yl)piperidine-2,6-dione] | 44.3 | < 60 | ≥ 10000 | > 1000 |
| O=C1CCC(c2cccc(-c3ccc(N4C(=O)OCCC45CCC5)nc3)c2Cl)C(=O)N1 (stereo not drawn) [Compound 359, 3-(2-chloro-3-(6-(6-oxo-7-oxa-5-azaspiro-[3.5]nonan-5-yl)pyridin-3-yl)phenyl)piperidine-2,6-dione] | 95 | > 90 | 13.3 | ≤ 100 |
| O=C1CCC(c2cccc(-c3ccc(Oc4ncccn4)cc3)c2Cl)C(=O)N1 (stereo not drawn) [Compound 360, 3-(2-chloro-4′-(pyrimidin-2-yloxy)-[1,1′-biphenyl]-3-yl)piperidine-2,6-dione] | 96.5 | > 90 | 6.85 | ≤ 100 |
| O=C1CCC(c2cc(F)cc(-c3ccc(-n4ccccc4=O)cc3)c2Cl)C(=O)N1 (stereo not drawn) [Compound 361, 3-(2-chloro-5-fluoro-4′-(2-oxopyridin-1(2H)-yl)-[1,1′-biphenyl]-3-yl)piperidine-2,6-dione] | 84.4 | 60 to 90 | 76.4 | ≤ 100 |
| O=C1CCC(c2cccc(-c3cnc(N4C(=O)CCCC45CC5)c(F)c3)c2Cl)C(=O)N1 (stereo not drawn) [Compound 362, 3-(2-chloro-3-(5-fluoro-6-(5-oxo-4-azaspiro[2.5]octan-4-yl)pyridin-3-yl)phenyl)piperidine-2,6-dione] | 87.5 | 60 to 90 | 69.6 | ≤ 100 |
| Cn1ccc(Cn2c(=O)n(C)c3cc(-c4cccc(C5CCC(=O)NC5=O)c4Cl)ccc32)n1 (stereo not drawn) [Compound 363, 3-(2-chloro-3-(3-methyl-1-((1-methyl-1H-pyrazol-3-yl)methyl)-2-oxo-2,3-dihydro-1H-benzo[d]imidazol-5-yl)phenyl)piperidine-2,6-dione] | 97.1 | > 90 | 4.86 | ≤ 100 |
| O=C1CCC(c2cccc(-c3cnc(N4C(=O)CCC45CC5)c(F)c3)c2Cl)C(=O)N1 (stereo not drawn) [Compound 364, 3-(2-chloro-3-(5-fluoro-6-(5-oxo-4-azaspiro[2.4]heptan-4-yl)pyridin-3-yl)phenyl)piperidine-2,6-dione] | 71.7 | 60 to 90 | 234 | 100 to 1000 |
| O=C1CCC(c2cccc(-c3cnc(N4C(=O)CCC45CCC5)c(F)c3)c2Cl)C(=O)N1 (stereo not drawn) [Compound 365, 3-(2-chloro-3-(5-fluoro-6-(6-oxo-5-azaspiro[3.4]octan-5-yl)pyridin-3-yl)phenyl)piperidine-2,6-dione] | 88 | 60 to 90 | 55 | ≤ 100 |
| CN1CCC2(CC2)N(c2ccc(-c3cccc(C4CCC(=O)NC4=O)c3Cl)cc2)C1=O (stereo not drawn) [Compound 366, 3-(2-chloro-4′-(6-methyl-5-oxo-4,6-diazaspiro[2.5]octan-4-yl)-[1,1′-biphenyl]-3-yl)piperidine-2,6-dione] | 97.8 | > 90 | 1.87 | ≤ 100 |
| O=C1CCC(c2cccc(-c3cnc(N4CCCCC4=O)c(F)c3)c2Cl)C(=O)N1 (stereo not drawn) [Compound 369, 3-(2-chloro-3-(5-fluoro-6-(2-oxopiperidin-1-yl)pyridin-3-yl)phenyl)piperidine-2,6-dione] | 69.5 | 60 to 90 | 331 | 100 to 1000 |
| O=C1CCC(c2cccc(-c3cnc(Cc4ncco4)c(F)c3)c2Cl)C(=O)N1 (stereo not drawn) [Compound 370, 3-(2-chloro-3-(5-fluoro-6-(oxazol-2-ylmethyl)pyridin-3-yl)phenyl)piperidine-2,6-dione] | 58.1 | < 60 | 1570 | > 1000 |
| CN1CC2(CCC(=O)N2c2ccc(-c3cccc(C4CCC(=O)NC4=O)c3Cl)cc2)C1 (stereo not drawn) [Compound 371, 3-(2-chloro-4′-(2-methyl-6-oxo-2,5-diazaspiro[3.4]octan-5-yl)-[1,1′-biphenyl]-3-yl)piperidine-2,6-dione] | 37.8 | < 60 | ≥ 10000 | > 1000 |
| O=C1CCC(c2cccc(-c3ccc(N4CCCNC4=O)cc3)c2Cl)C(=O)N1 (stereo not drawn) [Compound 372, 3-(2-chloro-4′-(2-oxotetrahydropyrimidin-1(2H)-yl)-[1,1′-biphenyl]-3-yl)piperidine-2,6-dione] | 94.4 | > 90 | 10 | ≤ 100 |
| O=C1CCC(c2cccc(-c3ccc(Cc4ccco4)cc3)c2Cl)C(=O)N1 (stereo not drawn) [Compound 373, 3-(2-chloro-4′-(furan-2-ylmethyl)-[1,1′-biphenyl]-3-yl)piperidine-2,6-dione] | 97.2 | > 90 | 25.6 | ≤ 100 |
| O=C1CCC(c2cccc(-c3ccc(Cc4cccnc4)cc3)c2Cl)C(=O)N1 (stereo not drawn) [Compound 374, 3-(2-chloro-4′-(pyridin-3-ylmethyl)-[1,1′-biphenyl]-3-yl)piperidine-2,6-dione] | 97.4 | > 90 | 10.2 | ≤ 100 |
| COC(=O)c1ccc(Cc2ccc(-c3cccc(C4CCC(=O)NC4=O)c3Cl)cc2)n1C (stereo not drawn) [Compound 375, methyl 5-((2′-chloro-3′-(2,6-dioxopiperidin-3-yl)-[1,1′-biphenyl]-4-yl)methyl)-1-methyl-1H-pyrrole-2-carboxylate] | 98 | > 90 | 14.2 | ≤ 100 |
| O=C1CCC(c2cccc(-c3ccc(Cc4cncnc4)cc3)c2Cl)C(=O)N1 (stereo not drawn) [Compound 376, 3-(2-chloro-4′-(pyrimidin-5-ylmethyl)-[1,1′-biphenyl]-3-yl)piperidine-2,6-dione] | 95.8 | > 90 | 15.2 | ≤ 100 |
| O=C1CCC(c2cccc(-c3ccc(Cc4cccs4)cc3)c2Cl)C(=O)N1 (stereo not drawn) [Compound 377, 3-(2-chloro-4′-(thiophen-2-ylmethyl)-[1,1′-biphenyl]-3-yl)piperidine-2,6-dione] | 98.8 | > 90 | 17.2 | ≤ 100 |
| CN1CCC(C)(C)N(c2ccc(-c3cccc(C4CCC(=O)NC4=O)c3Cl)cc2)C1=O (stereo not drawn) [Compound 378, 3-(2-chloro-4′-(3,6,6-trimethyl-2-oxotetrahydropyrimidin-1(2H)-yl)-[1,1′-biphenyl]-3-yl)piperidine-2,6-dione] | 98.3 | > 90 | 1.56 | ≤ 100 |
| O=C1CCC(c2cccc(-c3ccc4c(c3)CCCO4)c2Cl)C(=O)N1 (stereo not drawn) [Compound 381, 3-[2-chloro-3-(3,4-dihydro-2H-1-benzopyran-6-yl)phenyl]piperidine-2,6-dione] | 96.5 | > 90 | 35.9 | ≤ 100 |
